This is an account of results in patent publication US9456997B2, “Selective inhibition of β1-adrenergic receptors for the treatment of pediatric heart failure” (THE REGENTS OF THE UNIVERSITY OF COLORADO, A BODY CORPORATE, priority 2010, dated 2016).

In experiment [1] the test system is HF patients (adult population). The settings on record: cited from earlier work.
The test system of another experiment is β1 and β2 receptors. The settings on record: cited from earlier work; for β1 receptor selectivity: in words.
The subject of experiment [2] is isoproterenol challenged young and old mice. The experiment can be described thus: Mouse model of pediatric heart failure: cardiac growth (HW/BW) in response to isoproterenol with or without β-blocker. The format is in vivo. The settings on record: for pathologic growth response to isoproterenol: isoproterenol 7 days, β-blocker via subcutaneously implanted pump; for heart weight to body weight ratio (HW/BW), response to ISO: older mice; for heart weight to body weight ratio (HW/BW), response to ISO / cardiac growth response to ISO (HW/BW): isoproterenol 30 mg/kg/day 7 days, β-blocker in drinking water, versus same age ISO. The procedure:
(§1) Since a primary characteristic of human heart failure is endogenous catecholamine (epinephrine and norepinephrine; full β1 and β2 receptor agonists) excess, they challenged the mice with isoproterenol (an exogeous full β1 and β2 receptor agonist) for 7 days using a subcutaneous miniosmotic pump at a dose (30 mg/kg/day) that has previously been associated with cardiac hypertrophy in adult mice and has been used as a model of cardiac hypertrophy and heart failure in adult […]. Higher doses (120 mg/kg/day) for 14 days cause a dilated heart failure phenotype, providing further evidence that this is an appropriate HF model. Half the animals received the isoproterenol treatment and the other half were treated with placebo pumps filled with normal saline and vitamin C, the vehicle that the isoproterenol is dissolved in. The young and old animals were divided into 2 studies: one for carvedilol treatment and one for metoprolol treatment (the study design for each animal study is illustrated in FIG. 8). […] The amount of water consumed was measured on a daily basis and all groups consumed similar amounts of water. In a second study to further support hypothesis (i) above and provide evidence of a class effect among β1-selective antagonists, young mice were divided into 2 studies one for bisoprolol and one for nebivolol. […] After 7 days of treatment, the hearts were removed and assessed for cardiac growth in response to isoproterenol with or without the β-blocker. Protein was isolated from the hearts of young and old mice in the presence or absence of isopreterenol without any β-blocker treatment assessed for phosphorylation of phospholamban by Western blot as outlined above.

Experiment [3] relates to children with heart failure. The settings on record: Pediatric Carvedilol Trial, cited from earlier work.
A further experiment concerns Akt. The experiment can be described thus: Phosphorylation of Akt in young mouse hearts by Western blot. The settings on record: young mice, heart, one week of treatment, versus placebo. It counts as in vivo. The procedure: (§2) Western blots were performed as previously described by the inventors. Antibodies for total and phosphorylated PLB were diluted 1:15000 and antibodies for total and phosphorylated Akt were diluted 1:1000 in 1×TBS (20 mM Tris 500 mM NaCl pH 7.5) containing 3% BSA and 0.1% tween and incubated with the blot overnight at 4° C.
(§3) To address hypothesis (iv) above a third study was performed in the young mice to provide evidence of the beneficial effects of exogenous β2-selective agonism with fenoterol. […] The methodology was identical to that outlined in the carvedilol and metoprolol studies above. Protein was isolated from the placebo, fenoterol and isoproterenol treated mouse hearts and phosphorylation of Akt and expression of Caspase 3 was determined to confirm the beneficial effects of fenoterol treatment.

Experiment [4] concerns adult mouse models of myocardial infarction. The settings on record: adult mouse models of myocardial infarction (Ahmet, 2004; 2005; 2008); cited from earlier work.
Another experiment deals with caspase 3. The experiment can be described thus: Caspase 3 levels in young mouse hearts by Western blot. The format is in vivo. The settings on record: young mice, heart, one week of treatment, versus placebo. The procedure: as §2, §3
In experiment [5] the test system is phospholamban (Ser16, Thr17). The experiment can be described thus: Phospholamban phosphorylation in mouse hearts by Western blot. The settings on record: isoproterenol challenged versus control. It counts as in vivo. The procedure:
as §2, §1

Molecules are shown by their SMILES. “Also recorded” adds a separate entry of the source. Where two headings read alike, the source gives them in different places.

Consider `CC(C)NCC(O)COc1ccc(COCCOC(C)C)cc1` (stereo not shown) [Bisoprolol], for which, in experiment [1] (CIBIS trial), the “Mortality Benefit, RR reduction” value is 32% RR. The β1 receptor selectivity result in the experiment with β1 and β2 receptors is listed as “higher selectivity than Metoprolol”. The “pathologic growth response to isoproterenol” value is “significantly suppressed” in experiment [2] (young mice) and “significant blunting” in experiment [2] (young mice, listed as bisoprolol).

As to `COc1ccccc1OCCNCC(O)COc1cccc2[nH]c3ccccc3c12` (stereo not shown) [Carvedilol], the “Mortality Benefit, RR reduction” value is recorded as 23% RR in experiment [1] (CAPRICORN trial), 35% RR in experiment [1] (COPERNICUS trial) and 65% RR in experiment [1] (US Coreg HF trial). Also, the “blockade of β2 receptors relative to β1 receptors” value in the experiment on β1 and β2 receptors (β2 over β1) is reported as “up to 7 times”. Further, the entries for the “Outcome (clinical benefit)” value in experiment [3] (listed as carvedilol) and in experiment [3] were “lack of clinical benefit” and “no clinical benefit”, respectively. For the same compound, the “heart weight to body weight ratio (HW/BW), response to ISO” value in experiment [2] is given as “lower”. Further, the “cardiac growth response to ISO (HW/BW)” value in experiment [2] (young mice) is on record as “no benefit”; in experiment [2] (young mice, listed as Coreg), “no influence”.

On to `CC(Cc1ccc(O)cc1)NCC(O)c1cc(O)cc(O)c1` (stereo not shown) [Fenoterol, fenoterol], for which the results for the “phosphorylation of Akt” value in the experiment with Akt and in the experiment with Akt (listed as fenoterol) were “induced” and “increasing”, respectively. The “myocardial remodeling and function” value in experiment [4] was “improvements in myocardial remodeling and function”. The “caspase 3 levels” value in the experiment on caspase 3 (listed as fenoterol) is listed as “maintaining only basal levels; also recorded: did not induce”.

With `CC(C)NCC(O)c1ccc(O)c(O)c1` (stereo not shown) [Isoproterenol, isoproterenol], in experiment [5] (old (adult) mice), the “phospholamban phosphorylation at serine 16” value was “dephosphorylated; also recorded: lower” and the “phospholamban phosphorylation at threonine 17” value was “dephosphorylated; also recorded: lower”. In experiment [5] (young mice), the “phospholamban phosphorylation at serine 16” value is reported as “unchanged” and the “phospholamban phosphorylation at threonine 17” value was “unchanged”. Further, the “phosphorylation of Akt” value with Akt is “decreased”. Also, the “pathologic cardiac growth produced by the agonist” value in experiment [2] (young and old mice, 30 mg/kg/day for 7 days, subcutaneous miniosmotic pump) is “significant pathologic cardiac growth”. Besides, the “growth response elicited by the agonist” value in experiment [2] (young mice, placebo (no β-blocker) treated animals, bisoprolol and nebivolol cohorts) is given as “significant growth response”. Besides, the “caspase 3 levels” value in the experiment with caspase 3 was “increased”.

`COCCc1ccc(OCC(O)CNC(C)C)cc1` (stereo not shown) [Metoprolol]: in experiment [1] (MERIT-HF trial), the “Mortality Benefit, RR reduction” value is 34% RR. Also, the β1 receptor selectivity result in the experiment on β1 and β2 receptors is given as “selectively blocks the β1 receptor”. For the same compound, the “heart weight to body weight ratio (HW/BW), response to ISO” value in experiment [2] is reported as “lower”. In addition, the “cardiac growth response to ISO (HW/BW)” value in experiment [2] (young mice) is listed as “blunted”; in experiment [2] (young mice, listed as metoprolol), “demonstrated benefit”.

Take `OC(CNCC(O)C1CCc2cc(F)ccc2O1)C1CCc2cc(F)ccc2O1` (stereo not shown) [Nebivolol]: the “Mortality or Hospitalization Benefit, RR reduction” value in experiment [1] (SENIORS trial) is on record as 14% RR. Also, the β1 receptor selectivity result in the experiment with β1 and β2 receptors is given as “higher selectivity than Metoprolol”. The “pathologic growth response to isoproterenol” value is given as “significantly suppressed” in experiment [2] (young mice) and “significant blunting” in experiment [2] (young mice, listed as nebivolol).
